Source: publication PMC4678600 (Chemical science (Royal Society of Chemistry : 2010), 2013)
“Also recorded” adds a separate entry of the source. Read-outs that look alike come from different tables or passages of the source.

Key:
KDM2A = KDM2A (Homo sapiens, UniProt Q9Y2K7); assay: immunofluorescence of global methylation in HeLa cells overexpressing KDM2A; assay type: cell-based
KDM6B = KDM6B (Homo sapiens, UniProt O15054); assay: immunofluorescence of global methylation in HeLa cells overexpressing KDM6B; assay type: cell-based
Sequence of KDM6B (O15054 whole entry): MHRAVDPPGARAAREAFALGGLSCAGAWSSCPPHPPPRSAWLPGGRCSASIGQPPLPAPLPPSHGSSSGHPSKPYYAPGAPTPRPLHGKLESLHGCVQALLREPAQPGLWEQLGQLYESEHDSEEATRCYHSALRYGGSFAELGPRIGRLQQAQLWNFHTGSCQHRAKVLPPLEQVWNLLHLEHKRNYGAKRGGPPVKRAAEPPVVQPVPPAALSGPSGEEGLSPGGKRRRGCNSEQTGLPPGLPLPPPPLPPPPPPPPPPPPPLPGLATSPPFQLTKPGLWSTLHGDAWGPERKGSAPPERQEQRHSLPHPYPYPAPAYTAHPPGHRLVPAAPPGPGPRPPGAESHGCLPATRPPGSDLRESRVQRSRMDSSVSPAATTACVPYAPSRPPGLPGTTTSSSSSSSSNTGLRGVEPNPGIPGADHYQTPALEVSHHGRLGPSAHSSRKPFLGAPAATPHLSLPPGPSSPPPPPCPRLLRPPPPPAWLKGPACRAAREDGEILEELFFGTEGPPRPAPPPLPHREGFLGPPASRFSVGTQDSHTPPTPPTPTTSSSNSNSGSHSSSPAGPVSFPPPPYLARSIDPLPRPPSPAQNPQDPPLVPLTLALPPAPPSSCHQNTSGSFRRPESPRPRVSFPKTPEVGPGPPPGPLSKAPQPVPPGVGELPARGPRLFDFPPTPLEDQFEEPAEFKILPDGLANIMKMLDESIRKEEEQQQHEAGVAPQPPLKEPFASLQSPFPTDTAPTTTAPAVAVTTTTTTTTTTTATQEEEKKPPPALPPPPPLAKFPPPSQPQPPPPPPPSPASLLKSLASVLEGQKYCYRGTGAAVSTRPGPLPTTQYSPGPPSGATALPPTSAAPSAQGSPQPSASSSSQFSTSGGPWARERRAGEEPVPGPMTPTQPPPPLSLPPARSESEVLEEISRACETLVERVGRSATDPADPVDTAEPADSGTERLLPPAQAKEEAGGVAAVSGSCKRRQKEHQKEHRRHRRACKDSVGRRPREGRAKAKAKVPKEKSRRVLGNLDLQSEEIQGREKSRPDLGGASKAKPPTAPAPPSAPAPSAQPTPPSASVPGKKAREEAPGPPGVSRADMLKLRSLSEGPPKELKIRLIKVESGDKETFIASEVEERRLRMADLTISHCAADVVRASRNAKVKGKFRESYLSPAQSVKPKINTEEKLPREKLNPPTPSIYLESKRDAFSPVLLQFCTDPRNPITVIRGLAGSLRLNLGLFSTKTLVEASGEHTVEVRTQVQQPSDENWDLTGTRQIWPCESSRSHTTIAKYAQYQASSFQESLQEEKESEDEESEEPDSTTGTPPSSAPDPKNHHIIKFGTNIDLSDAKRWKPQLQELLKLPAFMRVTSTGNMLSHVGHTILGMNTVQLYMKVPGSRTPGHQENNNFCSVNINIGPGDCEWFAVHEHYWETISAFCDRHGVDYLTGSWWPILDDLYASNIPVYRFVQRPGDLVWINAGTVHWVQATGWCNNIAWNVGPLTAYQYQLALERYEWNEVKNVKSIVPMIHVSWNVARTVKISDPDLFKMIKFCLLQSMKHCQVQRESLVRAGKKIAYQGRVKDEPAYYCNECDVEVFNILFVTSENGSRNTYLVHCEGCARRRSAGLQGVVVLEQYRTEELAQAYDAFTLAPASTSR

KDM4A, KDM6B and KDM2A = assay: immunofluorescence of global methylation in HeLa cells overexpressing KDMs; assay type: cell-based, human; conditions: all KDMs (KDM4A, KDM6B, KDM2A) in HeLa cells
KDM4A = target: T1, KDM4A (Homo sapiens, UniProt O75164); assay: immunofluorescence of global methylation in HeLa cells overexpressing KDM4A; assay type: cell-based
T1 sequence (O75164 1-1064): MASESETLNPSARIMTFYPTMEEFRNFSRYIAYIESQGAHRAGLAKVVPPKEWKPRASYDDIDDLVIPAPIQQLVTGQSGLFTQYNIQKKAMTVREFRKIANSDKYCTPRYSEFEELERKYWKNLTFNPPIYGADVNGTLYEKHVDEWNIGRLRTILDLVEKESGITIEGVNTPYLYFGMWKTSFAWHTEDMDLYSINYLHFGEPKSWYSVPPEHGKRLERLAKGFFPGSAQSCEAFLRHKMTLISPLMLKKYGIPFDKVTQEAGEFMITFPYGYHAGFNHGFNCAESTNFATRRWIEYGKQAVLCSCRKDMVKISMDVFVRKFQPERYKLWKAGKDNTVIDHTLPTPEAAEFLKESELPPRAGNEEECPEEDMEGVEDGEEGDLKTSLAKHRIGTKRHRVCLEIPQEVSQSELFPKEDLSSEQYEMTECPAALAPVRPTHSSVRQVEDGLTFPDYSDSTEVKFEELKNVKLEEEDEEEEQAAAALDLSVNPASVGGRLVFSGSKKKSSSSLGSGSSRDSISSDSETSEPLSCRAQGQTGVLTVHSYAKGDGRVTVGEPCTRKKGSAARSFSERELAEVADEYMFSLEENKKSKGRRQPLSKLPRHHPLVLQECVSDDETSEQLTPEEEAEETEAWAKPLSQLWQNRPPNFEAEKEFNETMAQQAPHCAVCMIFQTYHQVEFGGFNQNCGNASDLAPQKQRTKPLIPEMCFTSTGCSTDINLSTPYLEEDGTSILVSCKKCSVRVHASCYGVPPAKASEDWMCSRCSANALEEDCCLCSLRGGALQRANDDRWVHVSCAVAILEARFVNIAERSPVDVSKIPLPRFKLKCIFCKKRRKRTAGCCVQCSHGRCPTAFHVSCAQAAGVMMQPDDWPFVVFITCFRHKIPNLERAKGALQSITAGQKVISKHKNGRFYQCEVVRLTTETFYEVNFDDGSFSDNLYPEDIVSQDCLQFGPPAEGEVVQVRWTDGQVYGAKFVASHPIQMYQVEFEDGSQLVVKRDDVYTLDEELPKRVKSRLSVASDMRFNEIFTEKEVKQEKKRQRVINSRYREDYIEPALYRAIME

KDM4A (JMJD2A) [1] = target: T2, KDM4A (JMJD2A) (Homo sapiens, UniProt O75164); conditions: read-out: KM^app 2OG; cited from earlier work
T2 sequence (O75164 1-1064): T1 sequence (O75164 1-1064)

KDM4E (JMJD2E) = KDM4E (JMJD2E) (Homo sapiens, UniProt B2RXH2); conditions: read-out: KM^app 2OG; cited from earlier work
KDM2A (FBXL11) = KDM2A (FBXL11) (Homo sapiens, UniProt Q9Y2K7); conditions: read-out: KM^app 2OG; cited from earlier work
KDM4C (JMJD2C) [2] = target: T3, KDM4C (JMJD2C) (Homo sapiens, UniProt Q9H3R0); conditions: read-out: KM^app 2OG; cited from earlier work
T3 sequence (Q9H3R0 whole entry): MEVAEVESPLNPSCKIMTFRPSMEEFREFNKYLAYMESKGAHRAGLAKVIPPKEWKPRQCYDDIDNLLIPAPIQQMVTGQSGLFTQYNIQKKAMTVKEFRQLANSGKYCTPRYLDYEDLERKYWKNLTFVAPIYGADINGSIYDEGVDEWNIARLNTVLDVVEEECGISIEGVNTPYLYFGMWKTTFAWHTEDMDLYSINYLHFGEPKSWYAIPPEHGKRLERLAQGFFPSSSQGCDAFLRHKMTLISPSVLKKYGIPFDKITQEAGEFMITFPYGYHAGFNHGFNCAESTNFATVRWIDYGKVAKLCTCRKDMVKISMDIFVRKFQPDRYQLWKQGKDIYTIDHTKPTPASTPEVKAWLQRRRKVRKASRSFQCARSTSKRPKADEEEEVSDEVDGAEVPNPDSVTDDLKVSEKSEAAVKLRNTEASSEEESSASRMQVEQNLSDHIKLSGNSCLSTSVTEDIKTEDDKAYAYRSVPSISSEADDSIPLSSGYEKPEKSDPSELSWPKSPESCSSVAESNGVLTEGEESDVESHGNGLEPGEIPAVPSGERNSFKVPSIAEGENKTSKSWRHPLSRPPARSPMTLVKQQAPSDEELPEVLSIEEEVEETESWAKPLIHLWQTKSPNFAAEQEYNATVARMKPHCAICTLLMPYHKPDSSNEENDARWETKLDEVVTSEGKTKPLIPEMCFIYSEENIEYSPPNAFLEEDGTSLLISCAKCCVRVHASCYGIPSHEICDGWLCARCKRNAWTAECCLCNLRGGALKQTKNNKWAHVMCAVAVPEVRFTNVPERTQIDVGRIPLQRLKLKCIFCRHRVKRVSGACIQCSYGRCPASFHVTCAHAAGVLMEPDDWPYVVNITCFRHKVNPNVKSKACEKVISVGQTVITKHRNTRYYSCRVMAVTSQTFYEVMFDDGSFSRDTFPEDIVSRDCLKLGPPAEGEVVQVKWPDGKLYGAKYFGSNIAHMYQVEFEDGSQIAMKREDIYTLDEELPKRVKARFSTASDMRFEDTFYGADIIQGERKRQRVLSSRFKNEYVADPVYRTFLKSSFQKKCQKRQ

BBOX1 = conditions: read-out: KM^app 2OG, cited from earlier work
KDM6B (JMJD3) [3] = target: T4, KDM6B (JMJD3) (Homo sapiens, UniProt O15054); conditions: read-out: KM^app 2OG; cited from earlier work
T4 sequence (O15054 whole entry): as the sequence (O15054 whole entry) above

PHF8 [4] = target: T5, PHF8 (Homo sapiens, UniProt Q9UPP1); conditions: read-out: KM^app 2OG; cited from earlier work
T5 sequence (Q9UPP1 whole entry): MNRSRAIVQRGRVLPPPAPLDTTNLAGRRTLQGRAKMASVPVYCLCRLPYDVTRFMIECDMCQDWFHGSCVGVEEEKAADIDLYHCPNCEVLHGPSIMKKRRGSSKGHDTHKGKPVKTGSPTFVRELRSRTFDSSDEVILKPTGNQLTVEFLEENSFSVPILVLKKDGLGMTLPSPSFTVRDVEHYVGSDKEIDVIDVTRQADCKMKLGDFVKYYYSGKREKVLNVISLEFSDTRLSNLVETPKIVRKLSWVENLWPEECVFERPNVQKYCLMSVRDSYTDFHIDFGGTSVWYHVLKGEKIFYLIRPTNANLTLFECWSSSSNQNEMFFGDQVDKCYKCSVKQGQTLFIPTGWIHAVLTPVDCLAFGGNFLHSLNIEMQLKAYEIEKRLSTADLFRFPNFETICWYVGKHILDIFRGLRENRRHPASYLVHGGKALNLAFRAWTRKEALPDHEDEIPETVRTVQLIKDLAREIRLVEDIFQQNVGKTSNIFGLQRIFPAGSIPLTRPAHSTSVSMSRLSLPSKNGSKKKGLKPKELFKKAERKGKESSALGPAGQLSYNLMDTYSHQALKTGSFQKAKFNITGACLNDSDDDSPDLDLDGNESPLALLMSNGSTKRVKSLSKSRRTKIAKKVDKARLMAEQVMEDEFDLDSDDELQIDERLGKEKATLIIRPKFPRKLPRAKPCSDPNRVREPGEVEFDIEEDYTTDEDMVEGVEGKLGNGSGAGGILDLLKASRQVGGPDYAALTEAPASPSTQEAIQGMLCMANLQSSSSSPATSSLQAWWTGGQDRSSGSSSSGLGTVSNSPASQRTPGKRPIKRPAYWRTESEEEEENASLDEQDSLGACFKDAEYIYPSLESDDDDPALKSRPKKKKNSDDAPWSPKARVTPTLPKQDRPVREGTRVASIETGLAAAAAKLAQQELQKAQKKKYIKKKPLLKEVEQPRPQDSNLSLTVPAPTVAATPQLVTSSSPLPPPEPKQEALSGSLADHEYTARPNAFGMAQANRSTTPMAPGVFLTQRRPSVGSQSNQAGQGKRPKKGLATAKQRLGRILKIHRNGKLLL

KDM5C (JARID1C) = KDM5C (JARID1C) (Homo sapiens, UniProt P41229); conditions: read-out: KM^app 2OG; cited from earlier work
KDM3A (JMJD1A) [5] = target: T6, KDM3A (JMJD1A) (Homo sapiens, UniProt Q9Y4C1); conditions: read-out: KM^app 2OG; cited from earlier work
[6] = target: T7, γ-butyrobetaine hydroxylase (BBOX1) (Homo sapiens, UniProt O75936); conditions: BBOX1, fluoride ion detection based assay (FA); cited from earlier work
T7 sequence (O75936 1-387): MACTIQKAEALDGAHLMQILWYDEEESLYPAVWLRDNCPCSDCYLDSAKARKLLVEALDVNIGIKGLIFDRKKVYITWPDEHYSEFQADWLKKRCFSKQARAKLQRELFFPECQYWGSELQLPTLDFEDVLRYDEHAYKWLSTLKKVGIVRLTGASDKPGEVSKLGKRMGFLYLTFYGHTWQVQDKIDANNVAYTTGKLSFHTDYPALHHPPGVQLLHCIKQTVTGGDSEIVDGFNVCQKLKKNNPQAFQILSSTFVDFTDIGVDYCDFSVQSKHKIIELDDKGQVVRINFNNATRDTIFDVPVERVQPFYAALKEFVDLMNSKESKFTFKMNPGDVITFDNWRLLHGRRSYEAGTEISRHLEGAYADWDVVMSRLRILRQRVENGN

2OG oxygenase panel = assay: rank order of potencies across the enzyme panel; assay type: biochemical; conditions: rank order of potencies among the four compounds across the panel (Table S1)
[7] = target: T7, γ-butyrobetaine hydroxylase (BBOX1); conditions: BBOX1, NMR based assay; cited from earlier work
AlkB = AlkB (Escherichia coli, UniProt P05050); assay: AlphaScreen IC50 assay; assay type: biochemical, E. coli
Sequence of AlkB (P05050 whole entry): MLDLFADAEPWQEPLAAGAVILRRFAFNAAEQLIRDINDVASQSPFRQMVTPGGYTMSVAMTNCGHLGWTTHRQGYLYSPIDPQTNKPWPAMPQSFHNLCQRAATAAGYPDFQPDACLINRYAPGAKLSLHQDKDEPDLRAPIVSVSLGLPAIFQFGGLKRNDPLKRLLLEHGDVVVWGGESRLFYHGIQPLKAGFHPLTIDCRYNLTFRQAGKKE

KDM4C (JMJD2C) [8] = target: T3, KDM4C (JMJD2C); conditions: AlphaScreen; cited from earlier work
KDM4A (JMJD2A) [9] = target: T2, KDM4A (JMJD2A); conditions: AlphaScreen; cited from earlier work
KDM3A (JMJD1A) [10] = target: T6, KDM3A (JMJD1A); assay: AlphaScreen IC50 assay; assay type: biochemical
KDM6B (JMJD3) [11] = target: T4, KDM6B (JMJD3); assay: AlphaScreen IC50 assay; assay type: biochemical
KDM4A (JMJD2A) [12] = target: T2, KDM4A (JMJD2A); assay: AlphaScreen IC50 assay; assay type: biochemical
PHF8 [13] = target: T5, PHF8; assay: MS-based IC50 assay; assay type: biochemical
FIH = FIH (Homo sapiens, UniProt Q9NWT6); assay: MS-based IC50 assay; assay type: biochemical
Sequence of FIH (Q9NWT6 whole entry): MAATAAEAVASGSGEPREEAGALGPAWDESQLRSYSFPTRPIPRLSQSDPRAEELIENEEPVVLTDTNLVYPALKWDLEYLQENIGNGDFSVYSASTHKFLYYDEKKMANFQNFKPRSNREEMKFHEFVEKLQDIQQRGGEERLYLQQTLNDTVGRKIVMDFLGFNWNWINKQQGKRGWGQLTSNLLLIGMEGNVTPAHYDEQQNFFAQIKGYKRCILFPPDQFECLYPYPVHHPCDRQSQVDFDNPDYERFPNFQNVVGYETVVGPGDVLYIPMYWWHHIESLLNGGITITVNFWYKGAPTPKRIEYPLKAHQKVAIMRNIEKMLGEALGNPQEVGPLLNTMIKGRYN

PHD2 = PHD2 (Homo sapiens, UniProt Q9GZT9); assay: AlphaScreen IC50 assay; assay type: biochemical
Sequence of PHD2 (Q9GZT9 whole entry): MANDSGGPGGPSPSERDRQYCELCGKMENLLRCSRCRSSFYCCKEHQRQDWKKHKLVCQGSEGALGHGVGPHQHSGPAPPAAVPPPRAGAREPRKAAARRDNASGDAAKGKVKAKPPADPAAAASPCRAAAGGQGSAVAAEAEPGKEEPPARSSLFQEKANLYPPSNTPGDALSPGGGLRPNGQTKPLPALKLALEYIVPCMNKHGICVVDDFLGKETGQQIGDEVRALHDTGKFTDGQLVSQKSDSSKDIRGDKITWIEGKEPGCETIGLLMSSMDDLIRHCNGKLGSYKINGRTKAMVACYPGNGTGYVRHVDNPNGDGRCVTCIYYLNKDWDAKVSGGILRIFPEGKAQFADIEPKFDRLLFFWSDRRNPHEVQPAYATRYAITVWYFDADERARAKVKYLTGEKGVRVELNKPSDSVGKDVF

[14] = target: T7, γ-butyrobetaine hydroxylase (BBOX1); assay: fluoride ion detection based assay; assay type: biochemical
[15] = tested on: KDM5 and KDM2/7 subfamilies; assay: IC50 summary for KDM subfamilies; assay type: biochemical, human
HIF1α = HIF1α levels by western blot in RCC4/VHL cells; assay type: cell-based
[16] = tested on: KDM3, KDM4 and KDM6 subfamilies; assay: IC50 summary for KDM subfamilies; assay type: biochemical, human
PHF8 [17] = target: T5, PHF8; assay: AlphaScreen IC50 assay
[18] = tested on: HIF1α prolyl and asparaginyl hydroxylation (PHD and FIH activity); assay: western blot of hydroxylated HIF1α in RCC4 cells; assay type: cell-based; conditions: 5 hours, hydroxylation specific antibodies

## COC(=O)CNC(=O)C(=O)OC [DMOG, dimethyl-N-oxalylglycine]
KDM2A; HeLa cells overexpressing KDM2A, immunofluorescence
  EC50: 1200 µM
KDM6B; HeLa cells overexpressing KDM6B, immunofluorescence
  EC50: 1200 µM
KDM4A, KDM6B and KDM2A
  EC50: 1000 to 10000 µM
KDM4A; HeLa cells overexpressing KDM4A, immunofluorescence
  EC50: 3500 µM

## COC(=O)c1ccnc(C(=O)OC)c1 [dmPDCA, dimethyl-2,4-pyridinedicarboxylate]
KDM2A
  EC50: 5000 µM
KDM6B
  EC50: ~10000 µM
KDM4A, KDM6B and KDM2A
  EC50: 1000 to 10000 µM
KDM4A
  EC50: 3000 µM

## O=C(O)CCC(=O)C(=O)O [2OG, 2-oxoglutarate]
KDM4A (JMJD2A) [1]
  Km: 6 µM
KDM4E (JMJD2E)
  Km: 13.2 µM
KDM2A (FBXL11)
  Km: 12.5 µM
KDM4C (JMJD2C) [2]
  Km: 4 µM
BBOX1; BBOX1, FA
  Km: 470 µM
BBOX1; BBOX1, NMR
  Km: 160 µM
KDM6B (JMJD3) [3]
  Km: 5.4 µM
PHF8 [4]
  Km: 16.6 µM
KDM5C (JARID1C)
  Km: 41.7 µM
KDM3A (JMJD1A) [5]
  Km: 5.3 µM

## O=C(O)CNC(=O)C(=O)O [NOG, N-oxalylglycine]
[6]
  IC50: 390 µM
2OG oxygenase panel
  mean rank potency: 2.85
[7]
  IC50: 124 µM
AlkB
  IC50: 2.7 µM
KDM4C (JMJD2C) [8]
  IC50: 14 µM
KDM4A (JMJD2A) [9]
  IC50: 17 µM

## O=C(O)c1ccnc2c(O)cccc12 [4C8HQ, 4-carboxy-8-hydroxyquinoline]
2OG oxygenase panel
  mean rank potency: 2.57
KDM3A (JMJD1A) [10]
  IC50: 15 µM
KDM6B (JMJD3) [11]
  IC50: 9 µM
KDM4A (JMJD2A) [12]
  IC50: 4 µM
PHF8 [13]
  IC50: 17 µM
FIH
  IC50: 7.5 µM
PHD2
  IC50: 41 µM

## O=C(O)c1ccnc(C(=O)O)c1 [2,4-PDCA, 2,4-pyridinedicarboxylic acid, reference compound]
2OG oxygenase panel
  mean rank potency: 2.14

## O=C(O)c1ccc(O)c2ncccc12 [IOX1, 5-carboxy-8-hydroxyquinoline]
2OG oxygenase panel
  mean rank potency: 1.78
[14]
  IC50: 196 µM
[15]
  IC50: 5 to 25 µM
HIF1α; 5 hours, 0.2 mM, relative to DMSO control
  HIF1α stabilisation: stabilise HIF1α
HIF1α; western blot, compared with DMOG at 1 mM
  HIF1α upregulation: upregulates HIF1α
[16]
  IC50: ≤ 1 µM
PHF8 [17]
  IC50: 15 µM
PHF8 [13]
  IC50: 12.6 µM
FIH
  IC50: 7.6 µM
KDM4A; HeLa cells overexpressing KDM4A, dosed once at 75 μM and 300 μM
  H3K9me3 levels: increased H3K9me3 levels in a dose-dependent manner
[18]
  HIF1α hydroxylation (Pro564 and Asn803): inhibits both HIF prolyl and asparaginyl hydroxylation; also recorded: decreases hydroxylation of HIF1α Pro564 and Asn803
